We go through 70 compounds from the OPERA property sets (Mansouri et al. 2018).

Molecules are shown by their SMILES.

For orientation: melting point means the temperature, or range, at which the solid turns liquid. As usually defined, the boiling point is the temperature at which the vapour pressure of the liquid equals the pressure above it.

Details in one data set: not given
Compound `CCCC(=O)C=Cc1ccc(O)c(O)c1` gave a melting point of 132 °C. `C[Si](O)(c1ccccc1)c1ccccc1` had a melting point of 167 °C.

`C#CC(C)(C)NC(=O)c1ccc(F)cc1` returned a log10 Koc (L/kg) of 1.68. For `CCc1cc(CC)c(CC)c(CC)c1CC`, the boiling point was 277 °C.

With `O=C(O)C1C2CCC(O2)C1C(=O)O` (centres undefined), the log10 Koc (L/kg) was determined as 2.09, the log10 vapour pressure (mmHg) is -9.8 and the melting point was 144 °C. `Oc1cc(Cl)c(Cl)c(Cl)c1Cl` showed a log10 Koc (L/kg) of 4.12 and a melting point of 116 °C. In the case of `O=C(O)c1cc(I)c(I)c(I)c1`, the melting point came out at 292 °C.

For `CCN(CC)c1ccccc1`, the boiling point was found to be 216 °C, the log10 Koc (L/kg) was found to be 2.08, the log10 vapour pressure (mmHg) was -0.866 and the melting point was -38.8 °C. Also, the ready biodegradability entry is given as “not readily biodegradable”.

For the compound `O=[N+]([O-])c1cccc(F)c1`, the boiling point amounted to 199 °C and the melting point came to 41 °C. Consider `CC(C)(C)NC[C@H](O)COc1ccccc1C1CCCC1`, for which the melting point came out at 70 °C. Still for that read-out and setting: for `NC(=O)c1ccccc1Br` the value was 160 °C. Compound `COc1ccc(C=O)c(OC)c1` came in with a boiling point of 290 °C and a melting point of 72 °C. Consider `Clc1ccc(Cl)c(-c2cc(Cl)c(Cl)cc2Cl)c1`, for which the log10 Henry constant (atm·m³/mol) was -4.05, the log10 Koa came out at 9.06, the log10 Koc (L/kg) stood at 5.22 and the log10 vapour pressure (mmHg) is -4.6. As to `C[C@@H](CO)NC(=O)[C@@H]1C=C2c3cccc4[nH]cc(c34)C[C@H]2N(C)C1`, the melting point worked out at 162 °C. Consider `CC[C@@]12CCCN3CC[C@]4(c5cccc(OC)c5N(C(C)=O)[C@@H]4CC1)[C@H]32`, for which the melting point stood at 208 °C. Consider `Cc1c(Br)cc(Br)cc1Br`, for which the boiling point was 290 °C and the melting point was found to be 70 °C. With `FC(Cl)C(F)(F)F` (centres undefined), the boiling point is -12 °C and the log10 vapour pressure (mmHg) is 3.46. In turn, `CCOC(=O)C1(c2ccccc2)CCN(C)CC1` displayed a melting point of 270 °C. Turning to `CC(=O)OCCCl`, the boiling point was found to be 145 °C. `CCS(=O)(=O)c1cccnc1S(=O)(=O)NC(=O)Nc1nc(OC)cc(OC)n1`: the log10 Koc (L/kg) was found to be 1.71 and the melting point came to 177 °C. With `CCCCOCCOC(=O)CCCOc1ccc(Cl)cc1Cl`, the log10 Koc (L/kg) was 2.7. As for `CN(C)CCN`, the boiling point was found to be 105 °C and the ready biodegradability entry is “not readily biodegradable”. `C=C(C)c1ccc(C(C)C)cc1`: the boiling point was determined as 221 °C and the melting point was -30.6 °C. As to `CC(C)(C)CBr`, the boiling point stood at 106 °C.

`COc1cccc(Cl)c1Cl` showed a melting point of 32 °C. Turning to `CC(C)F`, the boiling point was -10 °C. Regarding `O=S(=O)(Cl)c1ccccc1`, the boiling point amounted to 252 °C, the log10 vapour pressure (mmHg) is -1.24 and the melting point was found to be 14.5 °C. `OC(CCN1CCCCC1)(c1ccccc1)C1CC2C=CC1C2` (centres undefined): the melting point worked out at 114 °C.

For the compound `c1ccc([C@@H]2CCCNC2)cc1`, the boiling point is 257 °C and the melting point worked out at 14.5 °C.

`Nc1cccc2ccc(O)cc12`: the melting point worked out at 206 °C. On to `O=C(OC(=O)c1ccccc1)c1ccccc1`, for which the boiling point is 360 °C, the log10 vapour pressure (mmHg) is -3.93 and the melting point was 42.5 °C.

The compound `OCCN1CCNCC1` returned a boiling point of 246 °C.

For `C[C@]12CC[C@@H](O)C[C@H]1CC[C@@H]1[C@@H]2C(=O)C[C@@]2(C)[C@H]1CC[C@]2(O)C(=O)CO`, the melting point came out at 214 °C. Take `CC(=O)OCC(CO)OC(C)=O` (centres undefined): the boiling point turned out to be 259 °C and the ready biodegradability result is on record as “readily biodegradable”. Regarding `CC=CCC`, the boiling point is 36.7 °C and the melting point is -146 °C. On to `NCc1cccnc1`, for which the boiling point was 226 °C and the melting point was -21.1 °C. Turning to `CC(C)C(=O)C(=O)O`, the boiling point is 170 °C and the melting point worked out at 31.5 °C. For `C/C=C/C=C/C(=O)OC`, the boiling point is 180 °C and the melting point is 15 °C. As to `O=C1c2ccccc2C(=O)c2c(Cl)cccc21`, the melting point is 163 °C and the ready biodegradability result is listed as “not readily biodegradable”. Turning to `Clc1cccc(-c2cccc(Cl)c2Cl)c1Cl`, the log10 Henry constant (atm·m³/mol) is -4 and the log10 vapour pressure (mmHg) was -4.13. Take `CCN(CC)C(=O)Cl`: the boiling point came out at 186 °C and the melting point was -32 °C. On to `CC(C)CC(=O)OCc1ccccc1`, for which the boiling point is 245 °C. `CC[C@@H](CO)NCCN[C@@H](CC)CO` came in with a melting point of 89 °C. Same read-out and setting: with `N=C(N)c1ccc(N)cc1` the figure was 182 °C. Regarding `Clc1cc2c(cc1Cl)Oc1c(cc(Cl)c(Cl)c1Cl)O2`, the log10 Koa stood at 10.6, the log10 vapour pressure (mmHg) is -9.36 and the melting point came out at 240 °C. `CCCCCCN(C)C(=O)COC(=O)c1ccccc1` registered a melting point of 100 °C. Still for that read-out and setting: with `C/C=C(\C)C(=O)O[C@H]1C[C@@H](OC(C)=O)[C@@]2(C(=O)OC)CO[C@H]3[C@@H](O)[C@@](C)([C@]45O[C@@]4(C)[C@H]4C[C@@H]5O[C@@H]5OC=C[C@@]54O)[C@H]4[C@]1(CO[C@]4(O)C(=O)OC)[C@@H]32` the figure was 156 °C. As for `CCC(C)(Cl)Cl`, the boiling point stood at 104 °C and the melting point is -74 °C. Compound `ClC(c1ccccc1)c1ccccc1` yielded a melting point of 16 °C. Turning to `CCCCC(CC)COC(=O)C=CC(=O)OCC(CC)CCCC` (centres undefined), the ready biodegradability entry was “readily biodegradable”. Regarding `CCC[N+](=O)[O-]`, the boiling point came to 131 °C, the log10 Henry constant (atm·m³/mol) was -4.06, the log10 Koa is 3.25 and the log10 vapour pressure (mmHg) came to 1. In addition, the melting point is -108 °C. Turning to `CC(=O)O[C@]1(C(C)=O)CC[C@H]2[C@@H]3C[C@H](C(F)(F)F)C4=CC(=O)CC[C@]4(C)[C@H]3CC[C@@]21C`, the melting point was determined as 206 °C. Take `OC(C(F)(F)F)C(F)(F)F`: the boiling point was 59 °C, the log10 Henry constant (atm·m³/mol) was -4.37, the log10 vapour pressure (mmHg) is 2.2 and the melting point was -4 °C. The ready biodegradability entry is “not readily biodegradable”.

Regarding `CCCCCCCCCCCCCCCCCCNC(=O)[C@H](O)[C@@H](O)[C@H](O)[C@H](O)CO`, the ready biodegradability result was “not readily biodegradable”. `CNC(=O)Oc1cccc(N=CN(C)C)c1` displayed a log10 Koc (L/kg) of 2.44. As for `CCC(C)c1cc([N+](=O)[O-])cc([N+](=O)[O-])c1OC(=O)OC(C)C` (centres undefined), the melting point came out at 61 °C. As to `Cc1c(N(C)C)c(=O)n(-c2ccccc2)n1C`, the melting point came out at 134 °C.

As for `c1ccc2c(c1)Cc1c-2ccc2ccccc12`, the boiling point is 405 °C, the log10 Henry constant (atm·m³/mol) was -4.58, the log10 biodegradation half-life (days) was determined as 2.15 and the log10 vapour pressure (mmHg) was -6.61. This compound gave a melting point of 190 °C.

Compound `CCOC(=O)c1ccc(N)cc1` yielded a boiling point of 310 °C and a melting point of 92 °C. Take `CC(C)(O)Cc1ccccc1`: the boiling point worked out at 215 °C and the melting point is 24 °C.

`CC(C)(C)c1ccc(CSc2cnn(C(C)(C)C)c(=O)c2Cl)cc1`: the log10 vapour pressure (mmHg) is -5.93 and the melting point is 112 °C.

With `C=CI`, the boiling point amounted to 56 °C. In turn, `COc1cc(C=CCO)ccc1O` displayed a melting point of 74 °C.

Regarding `O=c1ccn([C@@H]2C[C@H](F)[C@@H](CO)O2)c(=O)[nH]1`, the melting point is 186 °C. The compound `CC(=O)[C@H]1CC[C@H]2[C@@H]3C=CC4=CC(=O)CC[C@@]4(C)[C@@H]3CC[C@]12C` registered a melting point of 170 °C.

With `C=C(Cl)CSC(=S)N(CC)CC`, the log10 vapour pressure (mmHg) is -2.66. In turn, `COC(F)(F)C(F)(F)F` gave a log10 vapour pressure (mmHg) of 3.21. As for `CCCC(N)CCC`, the boiling point was 140 °C.

Staying with this data set, now noted: fish.
In the case of `CCN(CC)c1ccccc1`, the log10 BCF turned out to be 2.01. As for `Clc1ccc(Cl)c(-c2cc(Cl)c(Cl)cc2Cl)c1`, the log10 BCF came out at 5.47 and the log10 biotransformation half-life (days) was determined as 2.46. `c1ccc(C2CCCC(C3CCCCC3)C2)cc1` (centres undefined): the log10 biotransformation half-life (days) was 0.45. For `Clc1cc(Cl)c(-c2c(Cl)c(Cl)c(Cl)c(Cl)c2Cl)c(Cl)c1Cl`, the log10 biotransformation half-life (days) was found to be 2.66.

Turning to `O=C1c2ccccc2C(=O)c2c(Cl)cccc21`, the log10 BCF came out at 2.3 and the log10 biotransformation half-life (days) is -0.23. `Clc1cccc(-c2cccc(Cl)c2Cl)c1Cl`: the log10 BCF was determined as 4.23 and the log10 biotransformation half-life (days) amounted to 2.

`Clc1cc2c(cc1Cl)Oc1c(cc(Cl)c(Cl)c1Cl)O2` registered a log10 BCF of 4.26 and a log10 biotransformation half-life (days) of 1.56. The matching figures for `OC(C(F)(F)F)C(F)(F)F`: 0.4 and -1.32.
